Test results taken from patent US20240252488A1 (KOREA RESEARCH INSTITUTE OF CHEMICAL TECHNOLOGY, priority 2020, published 2024).

Tests used:
FADD−/− Jurkat cells = assay: Necroptosis inhibition assay, TNF-α-induced necroptosis (CellTiter-Glo 2.0); format: cell-based, human; settings: TNF-α 15 ng/mL; for Necroptosis inhibition assay (Rescue %) 1 μM: compound 1 μM; for Necroptosis inhibition assay (Rescue %) 10 μM: compound 10 μM
Method in brief: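 Cells at 5.0×10^5 cells/mL were pretreated with compound (final 0.1, 1 and 10 μM) for 30 minutes at room temperature, then given TNF-α at 15 ng/mL final. After 20 to 24 hours at 37° C, 5% CO2, viability was read as ATP luminescence to calculate cytotoxicity and necroptosis inhibition rate.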

MLKL [1] = molecular target: T1, MLKL (Homo sapiens, UniProt Q8NB16); assay: Measurement of binding affinity with MLKL receptor (competitive binding assay, Kd); design: made in house; host or cells: HEK 293 cell line (T7 phage in E. coli BL21-derived host is also described)
T1 sequence (Q8NB16 1-471): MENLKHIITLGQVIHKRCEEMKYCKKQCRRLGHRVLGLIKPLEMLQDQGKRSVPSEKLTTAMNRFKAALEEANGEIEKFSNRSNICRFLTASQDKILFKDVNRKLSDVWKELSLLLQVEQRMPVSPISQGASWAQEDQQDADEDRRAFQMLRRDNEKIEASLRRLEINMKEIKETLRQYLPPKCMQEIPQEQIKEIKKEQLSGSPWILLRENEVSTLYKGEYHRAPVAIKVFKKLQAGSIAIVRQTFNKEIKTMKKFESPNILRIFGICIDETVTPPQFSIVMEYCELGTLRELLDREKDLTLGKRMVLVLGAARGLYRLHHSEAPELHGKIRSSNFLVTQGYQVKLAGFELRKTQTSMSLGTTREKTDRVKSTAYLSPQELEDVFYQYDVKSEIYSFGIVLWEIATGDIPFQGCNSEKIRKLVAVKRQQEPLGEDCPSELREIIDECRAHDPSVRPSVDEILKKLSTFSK
Method in brief: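 Competition binding of kinase tagged with DNA for qPCR detection, expressed in HEK 293 cells, against immobilized ligand on beads. Final DMSO 0.9%. Kd derived from kinase amount in eluates measured by qPCR.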

MLKL [2] = molecular target: T1, MLKL; assay: MLKL degradation assay in HepG2 cell line (western blot); format: cell-based; design: endogenous in cells; host or cells: HepG2 or HaCaT; settings: cell line not given; for Degradation assay (Degradation %) 1 μM: compound 1 μM; for Degradation assay (Degradation %) 10 μM: compound 10 μM
Method in brief: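 HepG2 cells were exposed to compound at a final 1 or 10 μM for 20-24 hours at 37 °C, 5% CO2. RIPA lysates were normalized by BCA assay, 10-15 μg protein resolved by SDS-PAGE, and MLKL levels detected by western blot with chemiluminescence.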

Compound | Kd (MLKL [1]) [nM] | Degradation assay (Degradation %) 1 μM (MLKL [2]) [%] | Degradation assay (Degradation %) 10 μM (MLKL [2]) [%] | Necroptosis inhibition assay (Rescue %) 1 μM (FADD−/− Jurkat cells) [%] | Necroptosis inhibition assay (Rescue %) 10 μM (FADD−/− Jurkat cells) [%]
Nc1ncc(-c2cnn([C@@H]3CCN(CCOCCOCCNC(=O)CNc4ccc5c(c4)C(=O)N(C4CCC(=O)NC4=O)C5=O)C3)c2)nc1C(=O)OC(C(=O)Nc1ccc(F)cc1)c1ccccc1 (stereo partly drawn) [TDH-268, 2-((4-fluorophenyl)amino)-2-oxo-1-phenylethyl 3-amino-6-(1-((3R)-1-(2-(2-(2-(2-((2-(2,6-dioxopiperidin-3-yl)-1,3-dioxoisoindolin-5-yl)amino)acetamido)ethoxy)ethoxy)ethyl)pyrrolidin-3-yl)-1H-pyrazol-4-yl)pyrazine-2-carboxylate] | 6.9 | 7.05 | 35.64 | 21.45 | 51.22
Nc1ncc(-c2cnn([C@@H]3CCN(CCOCCOCCNC(=O)COc4cccc5c4C(=O)N(C4CCC(=O)NC4=O)C5=O)C3)c2)nc1C(=O)OC(C(=O)Nc1ccc(F)cc1)c1ccccc1 (stereo partly drawn) [TDH-269, 2-((4-fluorophenyl)amino)-2-oxo-1-phenylethyl 3-amino-6-(1-((3R)-1-(2-(2-(2-(2-((2-(2,6-dioxopiperidin-3-yl)-1,3-dioxoisoindolin-4-yl)oxy)acetamido)ethoxy)ethoxy)ethyl)pyrrolidin-3-yl)-1H-pyrazol-4-yl)pyrazine-2-carboxylate] | 5.4 |  | 12.14 | 35.71 | 81.5
Nc1ncc(-c2cnn([C@@H]3CCN(CCOCCOCCNC(=O)COc4ccc5c(c4)C(=O)N(C4CCC(=O)NC4=O)C5=O)C3)c2)nc1C(=O)OC(C(=O)Nc1ccc(F)cc1)c1ccccc1 (stereo partly drawn) [TDH-270, 2-((4-fluorophenyl)amino)-2-oxo-1-phenylethyl 3-amino-6-(1-((3R)-1-(2-(2-(2-(2-((2-(2,6-dioxopiperidin-3-yl)-1,3-dioxoisoindolin-5-yl)oxy)acetamido)ethoxy)ethoxy)ethyl)pyrrolidin-3-yl)-1H-pyrazol-4-yl)pyrazine-2-carboxylate] | 6.1 | 19.32 | 39.14 | 38.56 | 99.37
Nc1ncc(-c2cnn(C3CCN(CC4CCN(CC(=O)NC5CCN(c6ccc7c(c6)C(=O)N(C6CCC(=O)NC6=O)C7=O)CC5)CC4)CC3)c2)nc1C(=O)OC(C(=O)Nc1ccc(F)cc1)c1ccccc1 (stereo not drawn) [TDH-272, 2-((4-fluorophenyl)amino)-2-oxo-1-phenylethyl 3-amino-6-(1-(1-((1-(2-((1-(2-(2,6-dioxopiperidin-3-yl)-1,3-dioxoisoindolin-5-yl)piperidin-4-yl)amino)-2-oxoethyl)piperidin-4-yl)methyl)piperidin-4-yl)-1H-pyrazol-4-yl)pyrazine-2-carboxylate] | 13 | 23.54 | 44.2 | 60.73 | 72.92
Nc1ncc(-c2cnn(C3CCN(C(=O)C4CCN(C(=O)C5CCN(c6ccc7c(c6)C(=O)N(C6CCC(=O)NC6=O)C7=O)CC5)CC4)CC3)c2)nc1C(=O)OC(C(=O)Nc1ccc(F)cc1)c1ccccc1 (stereo not drawn) [TDH-274, 2-((4-fluorophenyl)amino)-2-oxo-1-phenylethyl 3-amino-6-(1-(1-(1-(1-(2-(2,6-dioxopiperidin-3-yl)-1,3-dioxoisoindolin-5-yl)piperidine-4-carbonyl)piperidine-4-carbonyl)piperidin-4-yl)-1H-pyrazol-4-yl)pyrazine-2-carboxylate] | 5.2 | 56.81 | 38.77 | 77.01 | 57.62

More lines, main results first:

Kd (MLKL [1]) [nM] | Degradation assay (Degradation %) 1 μM (MLKL [2]) [%] | Degradation assay (Degradation %) 10 μM (MLKL [2]) [%] | Compound | Necroptosis inhibition assay (Rescue %) 1 μM (FADD−/− Jurkat cells) [%] | Necroptosis inhibition assay (Rescue %) 10 μM (FADD−/− Jurkat cells) [%]
4.4 | 11.99 | 49.83 | Nc1ncc(-c2cnn([C@H]3CCN(CCOCCOCCNC(=O)COc4cccc5c4C(=O)N(C4CCC(=O)NC4=O)C5=O)C3)c2)nc1C(=O)OC(C(=O)Nc1ccc(F)cc1)c1ccccc1 (stereo partly drawn) [TDH-265, 2-((4-fluorophenyl)amino)-2-oxo-1-phenylethyl 3-amino-6-(1-((3S)-1-(2-(2-(2-(2-((2-(2,6-dioxopiperidin-3-yl)-1,3-dioxoisoindolin-4-yl)oxy)acetamido)ethoxy)ethoxy)ethyl)pyrrolidin-3-yl)-1H-pyrazol-4-yl)pyrazine-2-carboxylate] | 19.18 | 41.68
6 | 18.14 | 40.08 | Nc1ncc(-c2cnn([C@H]3CCN(CCOCCOCCNC(=O)COc4ccc5c(c4)C(=O)N(C4CCC(=O)NC4=O)C5=O)C3)c2)nc1C(=O)OC(C(=O)Nc1ccc(F)cc1)c1ccccc1 (stereo partly drawn) [TDH-266, 2-((4-fluorophenyl)amino)-2-oxo-1-phenylethyl 3-amino-6-(1-((3S)-1-(2-(2-(2-(2-((2-(2,6-dioxopiperidin-3-yl)-1,3-dioxoisoindolin-5-yl)oxy)acetamido)ethoxy)ethoxy)ethyl)pyrrolidin-3-yl)-1H-pyrazol-4-yl)pyrazine-2-carboxylate] | 35.24 | 68.2
5.7 |  | 37.75 | Nc1ncc(-c2cnn([C@@H]3CCN(CCOCCOCCNC(=O)CNc4cccc5c4C(=O)N(C4CCC(=O)NC4=O)C5=O)C3)c2)nc1C(=O)OC(C(=O)Nc1ccc(F)cc1)c1ccccc1 (stereo partly drawn) [TDH-267, 2-((4-fluorophenyl)amino)-2-oxo-1-phenylethyl 3-amino-6-(1-((3R)-1-(2-(2-(2-(2-((2-(2,6-dioxopiperidin-3-yl)-1,3-dioxoisoindolin-4-yl)amino)acetamido)ethoxy)ethoxy)ethyl)pyrrolidin-3-yl)-1H-pyrazol-4-yl)pyrazine-2-carboxylate] | 21.58 | 60.07
85 | 1.47 | 4.22 | Nc1ncc(-c2cnn(C3CCN(CC4CCN(CC(=O)N5CC(Nc6cccc7c6C(=O)N(C6CCC(=O)NC6=O)C7=O)C5)CC4)CC3)c2)nc1C(=O)OC(C(=O)Nc1ccc(F)cc1)c1ccccc1 (stereo not drawn) [TDH-271, 2-((4-fluorophenyl)amino)-2-oxo-1-phenylethyl 3-amino-6-(1-(1-((1-(2-(3-((2-(2,6-dioxopiperidin-3-yl)-1,3-dioxoisoindolin-4-yl)amino)azetidin-1-yl)-2-oxoethyl)piperidin-4-yl)methyl)piperidin-4-yl)-1H-pyrazol-4-yl)pyrazine-2-carboxylate] | 45.32 | 76.94
3.5 | 77.5 | 61.88 | Nc1ncc(-c2cnn(C3CCN(C(=O)C4CCN(C(=O)C5CCN(c6cccc7c6C(=O)N(C6CCC(=O)NC6=O)C7=O)CC5)CC4)CC3)c2)nc1C(=O)OC(C(=O)Nc1ccc(F)cc1)c1ccccc1 (stereo not drawn) [TDH-273, 2-((4-fluorophenyl)amino)-2-oxo-1-phenylethyl 3-amino-6-(1-(1-(1-(1-(2-(2,6-dioxopiperidin-3-yl)-1,3-dioxoisoindolin-4-yl)piperidine-4-carbonyl)piperidine-4-carbonyl)piperidin-4-yl)-1H-pyrazol-4-yl)pyrazine-2-carboxylate] | 54.02 | 34.08
